For 19 compounds, IC50 results are on record in patent publication US10961228B2, “JAK1 selective inhibitors” (AstraZeneca AB, priority 2017, dated 2021).

A word on the IC50: it is the midpoint of a concentration-inhibition curve.

In assay [1] the test system is IL-13 induced STAT6 promotor luciferase reporter in U937 monocytes (U937-STAT6-Luc). Description: Cellular interleukin (IL-13) induced JAK-STAT6-luciferase assay (pSTAT6). Type of assay: cell-based. The settings on record: Homo sapiens, U-937; IL-13 induced STAT6-luciferase, U937-STAT6-Luc cells. The protocol: Cells were harvested by centrifugation at 250 g for 5 min and resuspended in Assay buffer (20 mM HEPES, 1×HBSS and 0.1% BSA) to 1000 cells pr μl. For stimulation of cells was used interleukin (IL-13) also dissolved in Assay buffer to […]. […] Test and control compounds were applied to assay plates (low vol white 384-well plates) in serial dilutions from 10 mM to 0.5 nM at 5 nl pr well in DMSO.
To each well was added 4 μl cells and 4 μl interleukin (IL-13) and the plates were sealed and incubated at 37° C. for 4½ h and then at room temperature for 30 min. The assay was developed by addition of 4 μl pr well of SteadyGlo (Promega) and after […] the plates were read at an Envision plate reader with luminescence filter.

Assay [2] deals with recombinant JAK1 (amino acids 866-1154) (Homo sapiens (Human), UniProt P23458). In words: Enzyme inhibition studies, JAK1 (5 mM ATP, Caliper). The class given is biochemical. On the procedure: (§1) JAK enzyme was expressed as N-terminal GST fusion in insect cells and purified by glutathione-affinity and size-exclusion chromatographies. Enzymes were assayed at their approximated high end of physiological ATP concentration of 5 mM, in the presence of inhibitor dosed at 30, 3, 0.3, 0.03, 0.003 and 0 μM final test concentrations.
Sequence of recombinant JAK1 (amino acids 866-1154) (P23458 866-1154): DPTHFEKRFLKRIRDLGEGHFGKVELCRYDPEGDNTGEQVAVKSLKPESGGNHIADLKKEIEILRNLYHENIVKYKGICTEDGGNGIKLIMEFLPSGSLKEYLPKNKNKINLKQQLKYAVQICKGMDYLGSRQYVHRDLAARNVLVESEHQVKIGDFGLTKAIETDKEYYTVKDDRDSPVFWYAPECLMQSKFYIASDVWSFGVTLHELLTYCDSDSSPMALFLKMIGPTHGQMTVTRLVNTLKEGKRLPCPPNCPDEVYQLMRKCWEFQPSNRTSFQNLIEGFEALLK
(§2) Phosphorylated and unphosphotylated peptides were separated and quantified by a Caliper LC3000 system (Caliper Life Sciences, MA) for calculating percent inhibition.

Assay [3] concerns the target recombinant JAK3 (amino acids 781-1124) (Homo sapiens (Human), UniProt P52333). In words: Enzyme inhibition studies, JAK3 (5 mM ATP, Caliper). The class given is biochemical. On the procedure: as §1, §2
Assay [4] deals with recombinant JAK2 (amino acids 831-1132) (Homo sapiens (Human), UniProt O60674). In words: Enzyme inhibition studies, JAK2 (5 mM ATP, Caliper). The class given is biochemical. The protocol: as §1, §2
Sequence of recombinant JAK2 (amino acids 831-1132) (O60674 831-1132): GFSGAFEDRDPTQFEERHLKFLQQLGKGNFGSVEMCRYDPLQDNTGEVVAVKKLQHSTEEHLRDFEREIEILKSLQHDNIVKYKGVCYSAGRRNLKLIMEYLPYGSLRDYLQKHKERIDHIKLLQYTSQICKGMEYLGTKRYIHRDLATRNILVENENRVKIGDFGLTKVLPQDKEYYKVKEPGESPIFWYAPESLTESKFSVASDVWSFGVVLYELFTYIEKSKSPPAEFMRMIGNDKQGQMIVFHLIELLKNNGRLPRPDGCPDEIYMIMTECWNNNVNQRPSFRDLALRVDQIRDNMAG

Sequence of recombinant JAK3 (amino acids 781-1124) (P52333 781-1124): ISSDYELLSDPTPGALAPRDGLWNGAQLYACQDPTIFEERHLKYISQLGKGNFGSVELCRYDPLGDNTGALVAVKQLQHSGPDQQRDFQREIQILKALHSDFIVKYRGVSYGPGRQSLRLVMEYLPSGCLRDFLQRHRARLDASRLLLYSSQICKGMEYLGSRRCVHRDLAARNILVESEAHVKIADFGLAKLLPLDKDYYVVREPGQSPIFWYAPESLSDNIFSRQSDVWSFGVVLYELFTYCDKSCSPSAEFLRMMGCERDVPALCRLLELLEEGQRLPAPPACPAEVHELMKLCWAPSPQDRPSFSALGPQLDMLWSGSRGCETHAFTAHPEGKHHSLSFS

With `CC(C(=O)Nc1cccc2c(-c3nc(Nc4cccc(S(C)(=O)=O)c4F)ncc3F)c[nH]c12)N1CCN(C)C[C@H]1C` (stereo in doubt) [Example 49, (R)-2-((R)-2,4-dimethylpiperazin-1-yl)-N-(3-(5-fluoro-2-((2-fluoro-3-(methylsulfonyl)phenyl)amino)pyrimidin-4-yl)-1H-indol-7-yl)propanamide], the IC50 in assay [1] was 93 nM; in assay [2] it was 13 nM; in assay [3], over 30000 nM.
Turning to `CC[C@@H](C(=O)Nc1cccc2c(-c3nc(Nc4cccc(S(C)(=O)=O)c4F)ncc3C)c[nH]c12)N1CCN(C)CC1C` (stereo in doubt) [Example 50, (S)-2-((R)-2,4-dimethylpiperazin-1-yl)-N-(3-(2-((2-fluoro-3-(methylsulfonyl)phenyl)amino)-5-methylpyrimidin-4-yl)-1H-indol-7-yl)butanamide], the IC50 in assay [1] is 362 nM; in assay [2] it was 48.5 nM; in assay [4], over 30000 nM; in assay [3], over 30000 nM.
Regarding `CC[C@H](C(=O)Nc1cccc2c(-c3nc(Nc4cccc(S(C)(=O)=O)c4F)ncc3C)c[nH]c12)N1CCN(C)CC1C` (stereo in doubt) [Example 51, (R)-2-((R)-2,4-dimethylpiperazin-1-yl)-N-(3-(2-((2-fluoro-3-(methylsulfonyl)phenyl)amino)-5-methylpyrimidin-4-yl)-1H-indol-7-yl)butanamide], the IC50 in assay [1] is 24 nM; in assay [2], under 3 nM; in assay [4], 612 nM; in assay [3] it was over 30000 nM.
For `CC[C@@H](C(=O)Nc1cccc2c(-c3nc(Nc4cccc(S(C)(=O)=O)c4F)ncc3F)c[nH]c12)N1CCN(C)CC1C` (stereo in doubt) [Example 52, (S)-2-((R)-2,4-dimethylpiperazin-1-yl)-N-(3-(5-fluoro-2-((2-fluoro-3-(methylsulfonyl)phenyl)amino)pyrimidin-4-yl)-1H-indol-7-yl)butanamide], in that order: 1070 nM, 348 nM, over 30000 nM and over 30000 nM.
For `CC[C@H](C(=O)Nc1cccc2c(-c3nc(Nc4cccc(S(C)(=O)=O)c4F)ncc3F)c[nH]c12)N1CCN(C)CC1C` (stereo in doubt) [Example 53, (R)-2-((R)-2,4-dimethylpiperazin-1-yl)-N-(3-(5-fluoro-2-((2-fluoro-3-(methylsulfonyl)phenyl)amino)pyrimidin-4-yl)-1H-indol-7-yl)butanamide], in that order: 48 nM, under 3 nM, 2080 nM and over 30000 nM.
As to `CC[C@H](C(=O)Nc1cccc2c(-c3nc(Nc4cccc(S(C)(=O)=O)c4F)ncc3C)c[nH]c12)N1CCN(C)CC1C` (stereo in doubt) [Example 60, (R)-2-((S)-2,4-dimethylpiperazin-1-yl)-N-(3-(2-((2-fluoro-3-(methylsulfonyl)phenyl)amino)-5-methylpyrimidin-4-yl)-1H-indol-7-yl)butanamide], the IC50 in assay [1] was 64.2 nM; in assay [2], 7.4 nM; in assay [4], 11900 nM; in assay [3], over 30000 nM.
For `CC[C@@H](C(=O)Nc1cccc2c(-c3nc(Nc4cccc(S(C)(=O)=O)c4F)ncc3C)c[nH]c12)N1CCN(C)CC1C` (stereo in doubt) [Example 61, (S)-2-((S)-2,4-dimethylpiperazin-1-yl)-N-(3-(2-((2-fluoro-3-(methylsulfonyl)phenyl)amino)-5-methylpyrimidin-4-yl)-1H-indol-7-yl)butanamide], in that order: 163 nM, 42.8 nM, over 30000 nM and over 30000 nM.
For `Cc1cnc(Nc2cccc(S(C)(=O)=O)c2F)nc1-c1c[nH]c2c(NC(=O)[C@@H](C)N3CCN(CCO)CC3)cccc12` [Example 1, (R)-N-(3-(2-((2-fluoro-3-(methylsulfonyl)phenyl)amino)-5-methylpyrimidin-4-yl)-1H-indol-7-yl)-2-(4-(2-hydroxyethyl)piperazin-1-yl)propanamide], in that order: 41 nM, under 3 nM, 1580 nM and over 30000 nM.
For `Cc1cnc(Nc2cccc(S(C)(=O)=O)c2F)nc1-c1c[nH]c2c(NC(=O)[C@@H](C)N3CCN(C)CC3)cccc12` [Example 2, (R)-N-(3-(2-((2-fluoro-3-(methylsulfonyl)phenyl)amino)-5-methylpyrimidin-4-yl)-1H-indol-7-yl)-2-(4-methylpiperazin-1-yl)propanamide], in that order: 32 nM, at most 3 nM, 7350 nM and over 30000 nM.
As for `CCS(=O)(=O)c1cccc(Nc2ncc(C)c(-c3c[nH]c4c(NC(=O)[C@@H](C)N5CCN(C)CC5)cccc34)n2)c1F` [Example 3, (R)-N-(3-(2-(3-(ethylsulfonyl)-2-fluorophenylamino)-5-methylpyrimidin-4-yl)-1H-indol-7-yl)-2-(4-methylpiperazin-1-yl)propanamide], the IC50 in assay [1] was 39 nM; in assay [2], under 3 nM; in assay [4], 4120 nM; in assay [3] it was over 30000 nM.
For `Cc1cnc(Nc2cccc(S(=O)(=O)C3CC3)c2F)nc1-c1c[nH]c2c(NC(=O)[C@@H](C)N3CCN(C)CC3)cccc12` [Example 4], in that order: 27 nM, under 3 nM, 1600 nM and over 30000 nM.
Compound `Cc1cnc(Nc2cccc(S(C)(=O)=O)c2F)nc1-c1c[nH]c2c(NC(=O)[C@@H](C)N3C[C@H](C)N[C@@H](C)C3)cccc12` [Example 9, (R)-2-((3S,5S)-3,5-dimethylpiperazin-1-yl)-N-(3-(2-((2-fluoro-3-(methylsulfonyl)phenyl)amino)-5-methylpyrimidin-4-yl)-1H-indol-7-yl)propanamide] showed an IC50 in assay [1] of 55 nM.
For `COC[C@@H](C(=O)Nc1cccc2c(-c3nc(Nc4cccc(S(C)(=O)=O)c4F)ncc3C)c[nH]c12)N1CCN(C)CC1` [Example 15, (S)-N-(3-(2-((2-fluoro-3-(methylsulfonyl)phenyl)amino)-5-methylpyrimidin-4-yl)-1H-indol-7-yl)-3-methoxy-2-(4-methylpiperazin-1-yl)propanamide], the IC50 is 465 nM in assay [1], 213 nM in assay [2] and over 30000 nM in assay [3].
As to `COC[C@H](C(=O)Nc1cccc2c(-c3nc(Nc4cccc(S(C)(=O)=O)c4F)ncc3C)c[nH]c12)N1CCN(C)CC1` [Example 16, (R)-N-(3-(2-((2-fluoro-3-(methylsulfonyl)phenyl)amino)-5-methylpyrimidin-4-yl)-1H-indol-7-yl)-3-methoxy-2-(4-methylpiperazin-1-yl)propanamide], the IC50 in assay [1] is 18 nM; in assay [2], under 3 nM; in assay [3] it was over 30000 nM.
Regarding `CC[C@H](C(=O)Nc1cccc2c(-c3nc(Nc4cccc(S(C)(=O)=O)c4F)ncc3C)c[nH]c12)N1C[C@H](C)N(C)[C@@H](C)C1` [Example 20, (R)-N-(3-(2-((2-fluoro-3-(methylsulfonyl)phenyl)amino)-5-methylpyrimidin-4-yl)-1H-indol-7-yl)-2-((3S,5S)-3,4,5-trimethylpiperazin-1-yl)butanamide], in assay [1], the IC50 came to 51 nM.
As to `COC[C@@H](C(=O)Nc1cccc2c(-c3nc(Nc4cccc(S(C)(=O)=O)c4F)ncc3F)c[nH]c12)N1CCN(C)CC1` [Example 34, (S)-N-(3-(5-fluoro-2-((2-fluoro-3-(methylsulfonyl)phenyl)amino)pyrimidin-4-yl)-1H-indol-7-yl)-3-methoxy-2-(4-methylpiperazin-1-yl)propanamide], the values for the IC50 in assay [1], in assay [2] and in assay [3] were over 4200 nM, 1840 nM and over 30000 nM, respectively.
Compound `CCOC[C@H](C(=O)Nc1cccc2c(-c3nc(Nc4cccc(S(C)(=O)=O)c4F)ncc3F)c[nH]c12)N1CCN(C)CC1` [Example 63, (R)-3-ethoxy-N-(3-(5-fluoro-2-((2-fluoro-3-(methylsulfonyl)phenyl)amino)pyrimidin-4-yl)-1H-indol-7-yl)-2-(4-methylpiperazin-1-yl)propanamide] yielded an IC50 in assay [1] of 99 nM.
Still for that read-out and setting: with `COC[C@H](C(=O)Nc1cccc2c(-c3nc(Nc4cccc(S(C)(=O)=O)c4F)ncc3F)c[nH]c12)N1CCNCC1` [Example 66, (R)-N-(3-(5-fluoro-2-(2-fluoro-3-(methylsulfonyl)phenylamino)pyrimidin-4-yl)-1H-indol-7-yl)-3-methoxy-2-(piperazin-1-yl)propanamide] the figure was 51 nM.
As for `COC[C@@H](C(=O)Nc1cccc2c(-c3nc(Nc4cccc(S(C)(=O)=O)c4F)ncc3F)c[nH]c12)N1CCNCC1` [Example 67, (S)-N-(3-(5-fluoro-2-(2-fluoro-3-(methylsulfonyl)phenylamino)pyrimidin-4-yl)-1H-indol-7-yl)-3-methoxy-2-(piperazin-1-yl)propanamide], in assay [1], the IC50 is 1390 nM.
